Data taken from ChEMBL document CHEMBL1129670, “Synthesis and structure-activity relationships of N-propyl-N-(4-pyridinyl)-1H-indol-1-amine (besipirdine) and related analogs as potential therapeutic agents for Alzheimer's disease” (J Med Chem, 1996).

How the values were obtained:
[1] = species on record: Mus musculus; experiment: animal or person
Description: Effective dose against administration in mice

[2] = target: T1, Acetylcholinesterase (Rattus norvegicus, UniProt P37136)
T1 sequence (P37136 whole entry): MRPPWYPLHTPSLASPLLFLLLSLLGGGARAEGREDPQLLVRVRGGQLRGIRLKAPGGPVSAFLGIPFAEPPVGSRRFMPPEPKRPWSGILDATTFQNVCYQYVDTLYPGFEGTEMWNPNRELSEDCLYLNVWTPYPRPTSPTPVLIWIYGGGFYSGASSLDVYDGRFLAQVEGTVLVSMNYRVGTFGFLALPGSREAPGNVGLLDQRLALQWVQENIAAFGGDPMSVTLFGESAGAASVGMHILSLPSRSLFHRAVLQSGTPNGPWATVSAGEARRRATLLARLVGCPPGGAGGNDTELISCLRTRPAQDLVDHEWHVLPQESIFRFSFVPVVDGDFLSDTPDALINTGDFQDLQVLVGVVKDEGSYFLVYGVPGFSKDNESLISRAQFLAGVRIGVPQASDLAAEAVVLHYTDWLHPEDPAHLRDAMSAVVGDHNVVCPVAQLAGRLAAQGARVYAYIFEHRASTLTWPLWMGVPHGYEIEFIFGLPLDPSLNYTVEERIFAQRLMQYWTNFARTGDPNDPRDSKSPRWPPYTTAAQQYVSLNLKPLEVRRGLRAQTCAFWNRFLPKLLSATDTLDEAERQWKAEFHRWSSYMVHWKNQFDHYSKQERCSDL
Description: Inhibitory activity against acetylcholinesterase in rat striatal preparation

[3] = target: Muscarinic acetylcholine receptor; assay type: cell membranes, Membrane
Description: Inhibition of [3H]quinuclidinyl benzilate (QNB) binding from rat forebrain membranes in the absence of Zn

[4] = target: Sodium-dependent noradrenaline transporter (Homo sapiens, UniProt P23975)
Sequence of Sodium-dependent noradrenaline transporter (P23975 whole entry): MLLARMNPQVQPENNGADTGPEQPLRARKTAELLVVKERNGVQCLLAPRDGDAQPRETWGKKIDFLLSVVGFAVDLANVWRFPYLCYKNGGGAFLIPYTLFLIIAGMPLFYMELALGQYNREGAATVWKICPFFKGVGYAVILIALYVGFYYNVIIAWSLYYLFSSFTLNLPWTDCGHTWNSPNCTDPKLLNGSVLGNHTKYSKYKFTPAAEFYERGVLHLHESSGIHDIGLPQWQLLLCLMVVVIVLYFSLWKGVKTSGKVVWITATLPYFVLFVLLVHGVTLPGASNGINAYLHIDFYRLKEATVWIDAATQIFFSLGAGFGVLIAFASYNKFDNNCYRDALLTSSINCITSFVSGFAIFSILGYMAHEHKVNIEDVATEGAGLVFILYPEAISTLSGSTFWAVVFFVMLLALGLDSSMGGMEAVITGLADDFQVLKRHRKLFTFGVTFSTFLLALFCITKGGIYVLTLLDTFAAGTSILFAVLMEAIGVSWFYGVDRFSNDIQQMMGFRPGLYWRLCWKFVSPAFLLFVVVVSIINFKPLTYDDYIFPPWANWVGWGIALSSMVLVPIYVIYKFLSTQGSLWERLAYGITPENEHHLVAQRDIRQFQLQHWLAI
Description: Inhibitory activity against norepinephrine (NE) uptake in rat whole brain synaptosome preparation

[5] = system: Mus musculus; experiment: Antagonistic activity against Scopolamine induced behavioral deficits in mice at dose 1.25 mg/kg sc; assay type: functional; conditions: route subcutaneous
[6] = species on record: Mus musculus; experiment: Antagonistic activity against Scopolamine induced behavioral deficits in mice; 4/6; assay type: functional
[7] = system: Mus musculus; experiment: Antagonistic activity against Scopolamine induced behavioral deficits in mice at dose 0.16 mg/kg sc; assay type: functional; conditions: route subcutaneous
[8] = species on record: Mus musculus; conditions: dose 0.63 mg/kg; route subcutaneous
[9] = target: Muscarinic acetylcholine receptor; assay type: cell membranes, Membrane; remark: listed apart in the source
Description: Inhibition of [3H]quinuclidinyl benzilate (QNB) binding from rat forebrain membranes in the presence of Zn

[10] = system: Mus musculus; experiment: Antagonistic activity against Scopolamine induced behavioral deficits in mice at dose 5.0 mg/kg sc; assay type: functional; conditions: route subcutaneous
[11] = species on record: Mus musculus; experiment: Antagonistic activity against Scopolamine induced behavioral deficits in mice; 0/3; assay type: functional
[12] = system: Mus musculus; experiment: Antagonistic activity against Scopolamine induced behavioral deficits in mice at dose 1.25 mg/kg sc; 0/6; assay type: functional
[13] = system: Mus musculus; experiment: Antagonistic activity against Scopolamine induced behavioral deficits in mice at dose 5.0 mg/kg sc; 2/6; assay type: functional
[14] = species on record: Mus musculus; conditions: dose 5 mg/kg; route subcutaneous
[15] = target: T2, Adrenergic receptor alpha-2 (Rattus norvegicus, UniProt P22086+P19328+P22909); experiment: Inhibitory activity against [3H]clonidine binding to Alpha-2 adrenergic receptor in rat cortex
T2 sequence (P22086 whole entry): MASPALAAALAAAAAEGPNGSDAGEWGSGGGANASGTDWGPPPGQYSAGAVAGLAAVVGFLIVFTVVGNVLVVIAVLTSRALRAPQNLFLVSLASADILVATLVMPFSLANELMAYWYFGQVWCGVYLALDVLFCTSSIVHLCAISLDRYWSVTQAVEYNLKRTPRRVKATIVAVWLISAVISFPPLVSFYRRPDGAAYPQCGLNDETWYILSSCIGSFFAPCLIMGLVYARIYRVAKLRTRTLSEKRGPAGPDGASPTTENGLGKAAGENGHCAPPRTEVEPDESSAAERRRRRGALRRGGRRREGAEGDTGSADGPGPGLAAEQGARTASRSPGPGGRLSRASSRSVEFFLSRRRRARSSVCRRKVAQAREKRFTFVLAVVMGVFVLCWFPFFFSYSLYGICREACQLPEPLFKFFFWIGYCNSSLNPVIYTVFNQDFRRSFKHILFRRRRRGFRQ
T2 sequence (P19328 whole entry): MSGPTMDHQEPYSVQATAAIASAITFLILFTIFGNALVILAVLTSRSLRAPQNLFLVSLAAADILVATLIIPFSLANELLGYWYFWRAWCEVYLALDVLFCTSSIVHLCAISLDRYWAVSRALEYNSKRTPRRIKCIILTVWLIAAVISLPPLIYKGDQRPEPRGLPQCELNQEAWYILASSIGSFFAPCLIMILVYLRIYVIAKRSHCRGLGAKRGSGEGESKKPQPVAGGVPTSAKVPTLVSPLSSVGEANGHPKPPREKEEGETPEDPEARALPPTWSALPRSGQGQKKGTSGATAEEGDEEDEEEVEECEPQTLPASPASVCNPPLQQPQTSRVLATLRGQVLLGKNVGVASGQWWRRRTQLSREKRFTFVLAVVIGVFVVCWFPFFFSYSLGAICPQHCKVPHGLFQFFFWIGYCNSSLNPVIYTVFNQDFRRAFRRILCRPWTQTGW
T2 sequence (P22909 whole entry): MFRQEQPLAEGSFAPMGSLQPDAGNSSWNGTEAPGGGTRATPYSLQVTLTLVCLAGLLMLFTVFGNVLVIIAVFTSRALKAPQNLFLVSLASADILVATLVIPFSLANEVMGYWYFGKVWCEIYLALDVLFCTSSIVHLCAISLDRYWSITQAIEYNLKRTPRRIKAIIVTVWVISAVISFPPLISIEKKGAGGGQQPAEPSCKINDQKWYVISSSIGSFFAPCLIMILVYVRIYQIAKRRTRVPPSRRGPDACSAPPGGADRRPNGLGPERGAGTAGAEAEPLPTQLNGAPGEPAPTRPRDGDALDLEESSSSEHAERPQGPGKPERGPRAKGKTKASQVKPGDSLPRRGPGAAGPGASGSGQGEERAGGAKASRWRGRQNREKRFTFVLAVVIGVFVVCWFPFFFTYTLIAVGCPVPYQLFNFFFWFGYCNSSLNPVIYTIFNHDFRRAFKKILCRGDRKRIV

[16] = system: Mus musculus; experiment: Antagonistic activity against Scopolamine induced behavioral deficits in mice at dose 10 mg/kg sc; assay type: functional; conditions: route subcutaneous
[17] = species on record: Mus musculus; conditions: dose 2.5 mg/kg; route subcutaneous
[18] = species on record: Mus musculus; experiment: Antagonistic activity against Scopolamine induced behavioral deficits in mice; 3/9; assay type: functional
[19] = system: Mus musculus; experiment: Antagonistic activity against Scopolamine induced behavioral deficits in mice at dose 20 mg/kg sc; assay type: functional; conditions: route subcutaneous
[20] = system: Mus musculus; experiment: Antagonistic activity against Scopolamine induced behavioral deficits in mice at dose 1.0 mg/kg sc; assay type: functional; conditions: route subcutaneous
[21] = species on record: Mus musculus; experiment: Antagonistic activity against Scopolamine induced behavioral deficits in mice; 1/3; assay type: functional
[22] = system: Mus musculus; experiment: Antagonistic activity against Scopolamine induced behavioral deficits in mice at dose […] sc; assay type: functional; conditions: route subcutaneous
[23] = species on record: Mus musculus; experiment: Antagonistic activity against Scopolamine induced behavioral deficits in mice; 5/6; assay type: functional
[24] = system: Mus musculus; experiment: Antagonistic activity against Scopolamine induced behavioral deficits in mice at dose 0.3 mg/kg sc; assay type: functional; conditions: route subcutaneous
[25] = species on record: Mus musculus; experiment: Antagonistic activity against Scopolamine induced behavioral deficits in mice; 2/3; assay type: functional
[26] = system: Mus musculus; experiment: Antagonistic activity against Scopolamine induced behavioral deficits in mice at dose 1.25 mg/kg sc; 1/6; assay type: functional
[27] = system: Mus musculus; experiment: Antagonistic activity against Scopolamine induced behavioral deficits in mice at dose 2.5 mg/kg sc; assay type: functional; conditions: route subcutaneous
[28] = species on record: Mus musculus; experiment: Antagonistic activity against Scopolamine induced behavioral deficits in mice; 1/10; assay type: functional
[29] = system: Mus musculus; experiment: Antagonistic activity against Scopolamine induced behavioral deficits in mice at dose 0.63 mg/kg sc; assay type: functional; conditions: route subcutaneous
[30] = species on record: Mus musculus
[31] = species on record: Mus musculus; experiment: Antagonistic activity against Scopolamine induced behavioral deficits in mice; 0/9; assay type: functional
[32] = species on record: Mus musculus; experiment: Antagonistic activity against Scopolamine induced behavioral deficits in mice; assay type: functional
[33] = system: Mus musculus; experiment: Antagonistic activity against Scopolamine induced behavioral deficits in mice at dose 0.04 mg/kg sc; assay type: functional; conditions: route subcutaneous
[34] = system: Mus musculus; experiment: Antagonistic activity against Scopolamine induced behavioral deficits in mice at dose 5.0 mg/kg sc; 1/3; assay type: functional

SMILES	ED50 [1] [mg/kg]	IC50 [2] [µM]	IC50 [3] [µM]	IC50 [4] [µM]	IC50 [9] [µM]	further results
CN(c1ccncc1)n1ccc2cc([N+](=O)[O-])ccc21	> 20	> 100	29	> 30	7.6	Response [5]: 20%; Antagonism [6]: 4; Response [7]: 20%; Response [8]: 20%; Response [10]: 20%
Clc1ccc2c(ccn2Nc2ccncc2)c1	> 20	> 100	42	> 20	5.9	Antagonism [11]: 0
Cc1cc2ccccc2n1Nc1ccncc1	< 10	> 100	60	3.6	29	Antagonism [11]: 0
CCCN(c1ccncc1)n1ncc2ccccc21.O=C(O)/C=C/C(=O)O	11	> 100	13	1.4	4	Antagonism [12]: 0
CCCN(c1ccncc1)n1ccc2cc(Br)ccc21	> 20	> 100	4.4	2.6	1.6	Antagonism [13]: 2; Response [8]: 33%; Response [14]: 33%
C#CCN(c1ccncc1)n1ccc2ccccc21	3.9	> 100	11	0.68	2.5	IC50 [15]: 0.5 µM; Response [16]: 21%; Response [17]: 21%; Antagonism [18]: 3; Response [19]: 27%
CN(c1ccncc1)n1ccc2cc(Br)ccc21	> 20	> 100	4.6	13	2.5	Response [20]: 44%; Antagonism [21]: 1
CC(C)N(c1ccncc1)n1ccc2ccccc21	2.9	> 100	6	2.3	0.63	IC50 [15]: > 10 µM; Response [5]: 36%; Response [17]: 20%; Response [7]: 33%; Response [22]: 60%; Response [14]: 20%; Antagonism [23]: 5
c1ccc2c(c1)OCC(C1=NCCN1)O2 (centres undefined) [IDAZOXAN]				> 20		Response [5]: 47%; Response [17]: 53%; Response [22]: 60%; Response [8]: 43%; Response [14]: 33%; Antagonism [23]: 5
c1ccc2c(c1)ccn2Cc1ccncc1			223	> 20	84	Response [20]: 20%; Response [24]: 33%; Antagonism [25]: 2
CCCN(c1ccnc2cc(Cl)ccc12)n1ccc2ccccc21.O=C(O)/C=C/C(=O)O	> 20		> 300	6.9	180	Antagonism [26]: 1; Response [27]: 29%
CCCN(c1ccncc1)n1cc(C(C)=O)c2ccccc21	5	58	29	3.3	2.7	Response [7]: 20%; Antagonism [28]: 1
CCCN(c1cc(Cl)ncn1)n1ccc2ccccc21	> 20	> 100	> 1000	2.6	> 1000	Response [29]: 33%; Response [27]: 33%; Antagonism [30]: 3
CCCN(c1ccncc1)n1cc(CC)c2ccccc21	0.44	20	2.7	2.1	0.71	Antagonism [31]: 0; IC50 [15]: 3.6 µM
CCCN(c1ccncc1)n1ccc2cc(OC)ccc21	> 20	> 100	14	0.57	4.8	Response [29]: 26%; Antagonism [6]: 4; Response [7]: 20%; Response [22]: 20%; Response [10]: 36%
CCCCN(c1ccncc1)n1ccc2ccccc21	5.4	62	4	0.43	1.5	Agonism [32]: 1; IC50 [15]: 0.63 µM; Response [33]: 23%
CCCC(c1ccncc1)n1ccc2ccccc21 (centres undefined)			142	0.67	29	Antagonism [34]: 1; Response [24]: 20%
CCCN(c1ccncc1)n1cc(C#N)c2ccccc21	9.2		8.6	0.75	3.5	Response [29]: 36%; Response [5]: 29%; Response [7]: 40%; Response [22]: 53%; Antagonism [23]: 5; Response [10]: 27%
